According to the supplement of paper PMC8960247:
Counter-ions that a name gives are not always drawn. ± gives the standard error.

How the values were obtained:
621-102 (TSC2-deficient) = assay: relative viability vs DMSO; higher = less cytotoxic; conditions: serum: 10% FBS, 72 h
621-103 (TSC2-rescued) = assay: as above; conditions: serum: 10% FBS, 72 h
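Note: immortalized renal angiomyolipoma cells stably carrying empty vector or TSC2, dosed in 384-well plates in DMEM, viability normalized to vehicle-treated wells within each plate.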

Row | SMILES | relative viability (621-102 (TSC2-deficient); 0.0001 µM) [%] | relative viability (621-102 (TSC2-deficient); 0.001 µM) [%] | relative viability (621-102 (TSC2-deficient); 0.01 µM) [%] | relative viability (621-102 (TSC2-deficient); 0.1 µM) [%] | relative viability (621-102 (TSC2-deficient); 1 µM) [%] | relative viability (621-102 (TSC2-deficient); 10 µM) [%] | relative viability (621-103 (TSC2-rescued); 0.0001 µM) [%] | relative viability (621-103 (TSC2-rescued); 0.001 µM) [%] | relative viability (621-103 (TSC2-rescued); 0.01 µM) [%] | relative viability (621-103 (TSC2-rescued); 0.1 µM) [%] | relative viability (621-103 (TSC2-rescued); 1 µM) [%] | relative viability (621-103 (TSC2-rescued); 10 µM) [%]
1 | COc1ccccc1N1CCN(CC(O)COc2cccc3ccccc23)CC1 (stereo not given) [Naftopidil] | 106 ± 5.7 | 99.4 ± 2.5 | 101.3 ± 0.6 | 106 ± 5 | 104.5 ± 1 | 97.38 ± 0.86 | 114 ± 4.2 | 111.6 ± 0.22 | 112 ± 1.2 | 108 ± 1.9 | 102.2 ± 0.57 | 107 ± 2.7
2 | Cc1[nH]c2ccccc2c1CCNCc1ccc(/C=C/C(=O)NO)cc1 [LBH-589 (Panobinostat)] | 96.4 ± 2.3 | 86.7 ± 1.3 | 69.1 ± 3.1 | 41.28 ± 0.39 | 25.4 ± 1 | 11.9 ± 0.59 | 97.6 ± 1.1 | 85.6 ± 1.8 | 52.19 ± 0.31 | 4.57 ± 0.076 | 1.66 ± 0.2 | 1.1 ± 0.019
3 | COc1cc2nccc(Oc3ccc(NC(=O)Nc4cc(C)on4)c(Cl)c3)c2cc1OC [AV-951(Tivozanib)] | 102 ± 2 | 96.6 ± 3.2 | 110 ± 5.9 | 111 ± 2 | 107 ± 2.7 | 77.33 ± 0.38 | 101.2 ± 0.14 | 104 ± 1.3 | 102.2 ± 0.42 | 99.26 ± 0.52 | 102 ± 2.4 | 48.2 ± 1.3
4 | COc1cc(OC)c(OC)cc1C=O [Asaraldehyde] | 112 ± 3.5 | 116.4 ± 0.26 | 109.6 ± 0.37 | 96.2 ± 1.4 | 113.4 ± 0.62 | 92.3 ± 1.9 | 101 ± 2 | 103 ± 2 | 94.8 ± 1.3 | 99.98 ± 0.77 | 102.5 ± 0.13 | 96.06 ± 0.3
5 | Cc1cc(Nc2nc(N[C@@H](C)c3ccc(F)cc3)c(C#N)cc2F)n[nH]1 [AZ 960] | 99.6 ± 4 | 107 ± 3.6 | 103 ± 4.5 | 104 ± 2.7 | 47.1 ± 3.6 | 44.9 ± 4.3 | 99.9 ± 3.1 | 101 ± 1.2 | 94.7 ± 2.2 | 92.44 ± 0.84 | 62.82 ± 0.16 | 16.3 ± 0.85
6 | NC(=O)[C@@H](CCC(F)(F)F)N(Cc1ccc(-c2ncon2)cc1F)S(=O)(=O)c1ccc(Cl)cc1 | 109.7 ± 0.27 | 108 ± 2.7 | 124 ± 2.7 | 116.1 ± 0.31 | 117 ± 2.9 | 108 ± 2.9 | 103 ± 1.2 | 102 ± 1.3 | 101.6 ± 0.3 | 103.4 ± 0.95 | 103.76 ± 0.01 | 102 ± 1.9
7 | CNC(=O)c1cc(Oc2ccc(NC(=O)Nc3ccc(Cl)c(C(F)(F)F)c3)c(F)c2)ccn1 [BAY 73-4506 (Regorafenib)] | 109 ± 1.5 | 93.9 ± 5.3 | 99.5 ± 0.71 | 98.4 ± 2.8 | 102 ± 1.4 | 88.2 ± 1.8 | 98.01 ± 0.19 | 99.11 ± 0.79 | 99.9 ± 2.3 | 102 ± 1.6 | 100 ± 1.8 | 63.55 ± 0.47
8 | OCCn1cc(-c2cnc3nnn(Cc4ccc5ncccc5c4)c3n2)cn1 | 103 ± 2.2 | 98.7 ± 1.2 | 89.7 ± 2.1 | 100 ± 3.4 | 96 ± 2.5 | 93.2 ± 1.2 | 104.7 ± 0.61 | 102 ± 0.94 | 101.9 ± 0.21 | 103 ± 1.6 | 103.2 ± 0.56 | 99.7 ± 2.3
9 | O=C1NC(=O)/C(=C/c2ccc(-c3ccc(F)cc3O)o2)S1 | 111 ± 2.5 | 109 ± 2.8 | 102 ± 1.2 | 96.7 ± 3.6 | 106 ± 2.1 | 90.8 ± 2.4 | 92.9 ± 9.3 | 95.3 ± 2.2 | 96.95 ± 0.74 | 101 ± 5.6 | 88.2 ± 2 | 108 ± 3.4
10 | C=CC(=O)Nc1cccc(Sc2nc(Nc3ccc(N4CCN(C)CC4)cc3)ncc2Cl)c1 [WZ8040] | 98.7 ± 3.8 | 97.6 ± 2.1 | 99.3 ± 3.3 | 95.9 ± 1.6 | 98 ± 3.3 | 17.7 ± 4.6 | 100 ± 1.2 | 100 ± 1.6 | 99.8 ± 1.3 | 100 ± 1.5 | 100.6 ± 0.89 | 14.9 ± 0.36
11 | NCCCC(O)(P(=O)(O)O)P(=O)(O)O [Alendronate Sodium] | 99.4 ± 1.2 | 103 ± 1.3 | 103 ± 2.7 | 99.1 ± 5.1 | 99 ± 3.1 | 104.6 ± 0.43 | 98.7 ± 3.1 | 102 ± 1.5 | 101 ± 4.5 | 105.54 ± 0.079 | 104 ± 3.5 | 105 ± 2.9
12 | CCC(=O)O[C@H]1CC[C@H]2[C@@H]3CCC4=CC(=O)CC[C@]4(C)[C@H]3CC[C@]12C [Testosterone propionate (Agovirin)] | 104 ± 2.2 | 104 ± 1.2 | 98.7 ± 3.7 | 104 ± 1.1 | 104 ± 2.2 | 103 ± 4.2 | 109 ± 3.1 | 105 ± 1.9 | 104 ± 1.2 | 98.7 ± 2.8 | 102.1 ± 0.64 | 87.6 ± 1.6
13 | Nc1[nH]cnc2ncnc1-2 [Adenine] | 98 ± 4 | 96.5 ± 2.6 | 100 ± 3 | 97.9 ± 2.6 | 101 ± 2.1 | 112.7 ± 0.18 | 101 ± 3.9 | 98.5 ± 4.1 | 101 ± 1.6 | 97.3 ± 1.1 | 104.9 ± 0.9 | 117 ± 1.5
14 | CN(C)C(=O)Oc1cccc([N+](C)(C)C)c1 [Neostigmine bromide (Prostigmin)] | 103 ± 4.6 | 114 ± 3 | 104.2 ± 0.97 | 102 ± 7.2 | 102 ± 6 | 101.3 ± 0.82 | 92.6 ± 3.7 | 93.3 ± 2.9 | 93.6 ± 1.3 | 95.7 ± 2.7 | 93.8 ± 2.1 | 92.44 ± 0.58
15 | Clc1ccc(Nc2nnc(Cc3ccncc3)c3ccccc23)cc1 [Vatalanib] | 94.7 ± 6.8 | 102 ± 9.1 | 115 ± 1.4 | 108 ± 1.8 | 110 ± 2.7 | 117.2 ± 0.94 | 104 ± 1.1 | 106 ± 2 | 106 ± 2.4 | 105 ± 1.4 | 103 ± 2.8 | 110.66 ± 0.097
16 | CN(C)CCCN1c2ccccc2CCc2ccc(Cl)cc21 [Clomipramine HCl] | 114 ± 2.6 | 109 ± 1.4 | 111 ± 2.2 | 111 ± 4 | 109.6 ± 0.49 | 85.7 ± 0.93 | 100 ± 4.4 | 102 ± 1.1 | 102 ± 3.2 | 108 ± 3 | 93.4 ± 5.5 | 75.7 ± 1.8
17 | Nc1nc(F)nc2c1ncn2[C@@H]1O[C@H](CO)[C@@H](O)[C@@H]1O [Fludarabine (Fludara)] | 101 ± 3.9 | 92 ± 1.4 | 106 ± 1.3 | 100.6 ± 0.41 | 94.7 ± 5.7 | 86.22 ± 0.37 | 108 ± 4.5 | 92.6 ± 8.1 | 102 ± 1.6 | 102.9 ± 1 | 102.8 ± 0.34 | 86.6 ± 8
18 | FC(F)(F)c1ccc(/C=C/c2nc(COc3ccc(CCCCn4ccnn4)cc3)co2)cc1 [Mubritinib (TAK 165)] | 106 ± 3.2 | 105.09 ± 0.037 | 97.5 ± 1.1 | 103 ± 2.6 | 107 ± 1.2 | 110.2 ± 1.1 | 112 ± 3.3 | 106 ± 2 | 104 ± 2.1 | 112 ± 1.4 | 107 ± 2.1 | 115 ± 1.7
19 | Cc1ccccc1-n1c(Cn2cnc3c(N)ncnc32)nc2cccc(C)c2c1=O | 108.5 ± 0.61 | 117.2 ± 0.36 | 118 ± 4 | 116.3 ± 0.6 | 101.3 ± 0.42 | 99.9 ± 0.73 | 100.1 ± 0.63 | 100.4 ± 0.26 | 98 ± 1.1 | 100 ± 1.5 | 99.34 ± 0.9 | 96.2 ± 2.4
20 | CN1CCN(c2ccc([N+](=O)[O-])c3no[n+]([O-])c23)CC1 | 102 ± 5.5 | 101.2 ± 1 | 105 ± 1.3 | 102 ± 1.3 | 103 ± 1.9 | 88.03 ± 0.45 | 75 ± 4.3 | 82.8 ± 4.1 | 87.4 ± 5.2 | 98.8 ± 1.6 | 96 ± 2.7 | 65.3 ± 5
